Source: patent US9624167B2, “N-(4-hydroxy-4-methyl-cyclohexyl)-4-phenyl-benzenesulfonamides and N-(4-hydroxy-4-methyl-cyclohexyl)-4-(2-pyridyl)benzenesulfonamides and their therapeutic use” (PIMCO 2664 LIMITED, priority 2013, dated 2017)
Read-outs that look alike come from different tables or passages of the source. Marks after values point to notes of the source that are not given here.

Tests used:
[1] = Rodent pharmacokinetics study; type: in vivo, Sprague-Dawley rats; settings: rat; for half-life: male, Sprague-Dawley, plasma, elimination phase half-life; for i.v. AUC: intravenous 1 mg/kg; for Bioavail, F: tentative oral bioavailability, F=AUC(p.o.)×Dose(i.v.)/AUC(i.v.)×Dose(p.o.); for p.o. AUC: oral 5 mg/kg in 0.5% CMC/0.1% Tween-80 (HMC-C-01-A in 2% dimethylacetamide/20% hydroxypropyl-β-cyclodextrin)
Experimental: Absorption and metabolic stability were studied using an in vivo pharmacokinetics assay.
Three male Sprague-Dawley rats, aged 8-12 weeks, were dosed with test compounds administered either orally or intravenously (dose level of 1 mg/kg body weight intravenous or 5 mg/kg body weight orally). Test compounds were formulated in 0.5% carboxymethylcellulose (CMC)/0.1% Tween-80 for administration via the oral route, or in 5% DMSO/10% solutol in saline for administration via the intravenous route. For compound HMC-C-01-A the oral administration was formulated in 2% dimethylacetamide/20% hydroxypropyl-β-cyclodextrin in water. Animals were given free access to food throughout the study except for fasting overnight and until 2 hours post dose on the day of dosing.
Blood samples were taken from the retro-orbital plexus at the following time points and placed in microtubes containing 20% K2EDTA solution:
Oral Dosing: predose; 0.25, 0.5, 1, 2, 4, 6, 8, and 24 hours post dose.
Intravenous Dosing: predose; 0.08, 0.25, 0.5, 1, 2, 4, 8, and 24 hours post dose.
Blood samples were centrifuged to obtain plasma, which was transferred to a separate container and frozen at −20° C.
For analysis, samples were thawed at room temperature and prepared by protein precipitation with acetonitrile spiked with internal standard (500 ng/mL glipizide) in the ratio 1:4 with plasma. The samples were then vortexed for 5 minutes and centrifuged for 10 minutes at 20,600×g at 4° C. 100 μL of the supernatant was collected for analysis. The standard samples were prepared similarly, after spiking blank rat plasma samples with 10 μL of analyte.
The pharmacokinetic parameters for the test compounds were calculated by Phoenix WinNonlin version 6.3 (Pharsight Corp, CA) using standard non-compartmental methods. Peak plasma concentrations (Cmax) and time of the peak plasma concentration (Tmax) were the observed values. The area under the plasma concentration-time curve (AUC) was determined by use of the linear trapezoidal rule up to the last measurable concentration (AUClast) and thereafter by extrapolation of the terminal elimination phase to infinity (AUCinf). The terminal elimination rate constant (kel) was determined by regression analysis of the linear terminal portion of the log plasma concentration-time curve. The elimination phase half-life (t1/2) was calculated as 0.693/kel.

[2] = Maximum Tolerated Dose, Sprague-Dawley rats; settings: rat, in vivo, oral, ascending dose
Experimental: The acute safety of the compounds was assessed in rats in order to enable determination of the maximum tolerated dose (MTD), an indication of a compound's safety in animals. The higher the MTD, the greater is the potential safety of the compound being tested.
Two male and two female Sprague-Dawley rats, aged 8-12 weeks, were dosed at each dose level in an ascending dose study design. The test compounds were administered orally as a suspension formulated in 0.5% carboxymethylcellulose (CMC)/0.1% Tween-80 in a dose volume of 10 mL/kg. Animals were given free access to food throughout the study.
Animals were observed on at least two occasions during the first hour following dosing, approximately 30 minutes apart, and thereafter at hourly intervals for the remainder of the dosing day for at least 4 hours. […] The nature and severity, where appropriate, of the clinical signs and time were recorded at each observation. Observations included changes in the skin, fur, eyes, and mucous membranes, and also the respiratory, circulatory, autonomic, and central nervous system, as well as somatomotor activity and behaviour pattern. Particular attention was directed towards the observation of tremors, convulsions, salivation, diarrhoea, lethargy, sleep, and coma.
At the completion of the study, the results were expressed as the maximum tolerated dose for each compound, this being the highest of each without unacceptable toxicity.
The maximum dose without unacceptable side-effects was determined to be the MTD (expressed in mg/kg).

J774 macrophages = assay: Resazurin Macrophage J774 Viability Assay; type: cell-based; settings: Mus musculus, 12 point concentration range 10 μM to 0.5 nM, n = 4 replicates, mean of 3 independent experiments, 72 hour incubation, read-out: IC50 (2)
[3] = Rodent pharmacokinetics study; type: in vivo, Sprague-Dawley rats; settings: rat; for p.o. AUC: dosed at 10 mg/kg orally (‡)
hERG ion channel = target: T1, hERG ion channel (Homo sapiens, UniProt Q12809); assay: hERG Ion Channel Assay (Q-patch, hERG-CHO cells); type: cell-based; settings: hERG tail current, hERG-CHO cells, Q-patch; read-out: IC50 (1)
T1 construct: expressed in transfected cells; host or cells: Chinese Hamster Ovary cells (hERG-CHO), stably transfected
Procedure, shortened: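 Automated whole-cell Q-patch on hERG-CHO cells (held at 30° C for 24–48 h beforehand), −80 mV holding, +20 mV for 2 s then −40 mV for 1 s to elicit tail current every 5 s. Cumulative rising concentrations, 5 min each; percent tail-current inhibition fitted to three-parameter logistic for IC50.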

[4] = female Sprague-Dawley rats, read-out: Maximum tolerated dose, Females
[5] = male Sprague-Dawley rats, read-out: Maximum tolerated dose, Males
[6] = dosed at 0.5 mg/kg intravenously (*)

T1 sequence (Q12809 whole entry): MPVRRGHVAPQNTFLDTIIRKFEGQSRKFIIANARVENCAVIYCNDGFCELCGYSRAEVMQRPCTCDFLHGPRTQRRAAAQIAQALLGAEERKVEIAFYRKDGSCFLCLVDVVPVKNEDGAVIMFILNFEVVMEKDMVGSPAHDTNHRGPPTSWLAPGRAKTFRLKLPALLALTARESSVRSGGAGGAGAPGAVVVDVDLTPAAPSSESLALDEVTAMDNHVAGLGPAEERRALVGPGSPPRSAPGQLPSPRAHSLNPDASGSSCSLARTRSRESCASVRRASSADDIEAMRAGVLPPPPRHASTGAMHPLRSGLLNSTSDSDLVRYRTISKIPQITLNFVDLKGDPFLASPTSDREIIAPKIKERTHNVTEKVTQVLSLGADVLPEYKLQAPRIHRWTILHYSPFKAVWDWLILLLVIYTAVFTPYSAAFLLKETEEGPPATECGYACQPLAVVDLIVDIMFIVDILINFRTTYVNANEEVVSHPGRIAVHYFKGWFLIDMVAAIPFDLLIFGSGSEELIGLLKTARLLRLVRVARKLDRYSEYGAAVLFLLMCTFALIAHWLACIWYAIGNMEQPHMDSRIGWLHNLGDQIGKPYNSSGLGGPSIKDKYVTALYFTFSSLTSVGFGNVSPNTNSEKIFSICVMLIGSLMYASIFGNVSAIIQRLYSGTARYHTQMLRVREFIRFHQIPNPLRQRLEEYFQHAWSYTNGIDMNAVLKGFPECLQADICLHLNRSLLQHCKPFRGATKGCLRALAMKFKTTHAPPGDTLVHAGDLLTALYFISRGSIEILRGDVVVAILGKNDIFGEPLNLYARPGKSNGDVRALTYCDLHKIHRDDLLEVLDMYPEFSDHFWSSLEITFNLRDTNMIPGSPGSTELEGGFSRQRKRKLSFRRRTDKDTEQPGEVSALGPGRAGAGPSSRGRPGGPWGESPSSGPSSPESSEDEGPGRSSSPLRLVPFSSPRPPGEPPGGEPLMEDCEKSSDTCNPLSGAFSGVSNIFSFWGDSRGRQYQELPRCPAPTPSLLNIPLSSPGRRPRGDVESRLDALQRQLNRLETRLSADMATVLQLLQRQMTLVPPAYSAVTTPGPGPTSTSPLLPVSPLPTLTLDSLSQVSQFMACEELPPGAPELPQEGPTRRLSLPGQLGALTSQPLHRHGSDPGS

Structure (SMILES) | half-life [1] | i.v. AUC [1] | Bioavail, F [1] | MTD [2, 4] | MTD [2, 5] | IC50 (J774 macrophages) | p.o. AUC [3] | p.o. AUC [1] | IC50 (hERG ion channel) | i.v. AUC [3, 6] | i.v. AUC ([3]; dosed at 2 mg/kg intravenously (†))
Cc1cc(S(=O)(=O)NC2CCC(C)(O)CC2)ccc1-c1ccc(F)cc1F (single isomer, unassigned) [REF001, reference compound] | 432 min | 963 ng·min/mL | 50% | 7.5 mg/kg | 10 mg/kg | 50 nM | 4766 ng·min/mL | – | – | – | –
Cc1cc(S(=O)(=O)N[C@H]2CC[C@H](O)CC2)ccc1-c1ccc(F)cc1F [ABD735] | 228 min | 1081 ng·min/mL | 83% | 20 mg/kg | 10 mg/kg | – | 8965 ng·min/mL | – | – | – | –
O=S(=O)(N[C@H]1CC[C@H](O)CC1)c1ccc(-c2ncc(Cl)cc2Cl)cc1 [ABD836, reference compound] | 318 min | 2142 ng·min/mL | 55% | – | – | – | – | 98.8 ng·h/mL | – | – | –
C[C@]1(O)CC[C@@H](NS(=O)(=O)c2ccc(-c3ccc(F)cc3F)cc2)CC1 [ABD899, reference compound] | 648 min | 2133 ng·min/mL | 50% | 30 mg/kg | 30 mg/kg | – | 10740 ng·min/mL | – | 2.9 µM | – | –
C[C@]1(O)CC[C@H](NS(=O)(=O)c2ccc(-c3ccc(Cl)cc3C#N)cc2)CC1 [HMC-C-01-A, 4′-Chloro-2′-cyano-N-((1r,4r)-4-hydroxy-4-methylcyclohexyl)biphenyl-4-sulfonamide] | 372 min | 900 ng·min/mL | 89% | 70 mg/kg | 70 mg/kg | 1890 nM | – | 66.7 ng·h/mL | 19.3 µM | – | –
C[C@]1(O)CC[C@@H](NS(=O)(=O)c2ccc(-c3ccc(Cl)cc3C#N)cc2)CC1 [HMC-C-01-B, 4′-Chloro-2′-cyano-N-((1s,4s)-4-hydroxy-4-methylcyclohexyl)-[1,1′-biphenyl]-4-sulfonamide] | 342 min | 1539 ng·min/mL | 67% | – | – | 160 nM | – | 85.3 ng·h/mL | – | – | –
C[C@]1(O)CC[C@H](NS(=O)(=O)c2ccc(-c3ccc(F)cc3C(F)(F)F)cc2)CC1 [HMC-C-02-A, 4′-Fluoro-N-((1r,4r)-4-hydroxy-4-methylcyclohexyl)-2′-(trifluoromethyl)biphenyl-4-sulfonamide] | 192 min | 546 ng·min/mL | 39% | > 200 mg/kg | > 200 mg/kg | 14700 nM | – | 17.8 ng·h/mL | 25 µM | – | –
C[C@]1(O)CC[C@@H](NS(=O)(=O)c2ccc(-c3ccc(F)cc3C(F)(F)F)cc2)CC1 [HMC-C-02-B, 4′-Fluoro-N-((1s,4s)-4-hydroxy-4-methylcyclohexyl)-2′-(trifluoromethyl)-[1,1′-biphenyl]-4-sulfonamide] | – | – | – | – | – | 1740 nM | – | – | – | – | –
C[C@]1(O)CC[C@H](NS(=O)(=O)c2ccc(-c3c(F)cc(F)cc3F)cc2)CC1 [HMC-C-03-A, 2′,4′,6′-Trifluoro-N-((1r,4r)-4-hydroxy-4-methylcyclohexyl)biphenyl-4-sulfonamide] | 144 min | 1427 ng·min/mL | 55% | 30 mg/kg | 30 mg/kg | 410 nM | – | 65.2 ng·h/mL | > 30 µM | – | –
C[C@]1(O)CC[C@@H](NS(=O)(=O)c2ccc(-c3c(F)cc(F)cc3F)cc2)CC1 [HMC-C-03-B, 2′,4′,6′-Trifluoro-N-((1s,4s)-4-hydroxy-4-methylcyclohexyl)-[1,1′-biphenyl]-4-sulfonamide] | 498 min | – | 116% | – | – | 200 nM | – | 157 ng·h/mL | – | 816* ng·min/mL | –
C[C@]1(O)CC[C@H](NS(=O)(=O)c2ccc(-c3ccc(F)cc3F)c(F)c2)CC1 [HMC-C-04-A, 2,2′,4′-Trifluoro-N-((1r,4r)-4-hydroxy-4-methylcyclohexyl)-[1,1′-biphenyl]-4-sulfonamide] | – | – | – | – | – | 500 nM | – | – | – | – | –
C[C@]1(O)CC[C@@H](NS(=O)(=O)c2ccc(-c3ccc(F)cc3F)c(F)c2)CC1 [HMC-C-04-B, 2,2′,4′-Trifluoro-N-((1s,4s)-4-hydroxy-4-methylcyclohexyl)-[1,1′-biphenyl]-4-sulfonamide] | 330 min | – | 59% | – | – | 60 nM | – | 156 ng·h/mL | – | 1589* ng·min/mL | –
C[C@]1(O)CC[C@H](NS(=O)(=O)c2ccc(-c3ncc(F)cc3F)c(F)c2)CC1 [HMC-N-01-A, 4-(3,5-Difluoropyridin-2-yl)-3-fluoro-N-((1r,4r)-4-hydroxy-4-methylcyclohexyl)benzenesulfonamide] | 804 min | 740 ng·min/mL | 64% | 80 mg/kg | 80 mg/kg | 2660 nM | – | 23.5 ng·h/mL | 183 µM | – | –
C[C@]1(O)CC[C@@H](NS(=O)(=O)c2ccc(-c3ncc(F)cc3F)c(F)c2)CC1 [HMC-N-01-B, 4-(3,5-Difluoropyridin-2-yl)-3-fluoro-N-((1s,4s)-4-hydroxy-4-methylcyclohexyl)benzenesulfonamide] | 546 min | 2824 ng·min/mL | 60% | – | – | 140 nM | – | 141 ng·h/mL | – | – | –
C[C@]1(O)CC[C@H](NS(=O)(=O)c2ccc(-c3ncc(F)cc3F)cc2)CC1 [HMC-N-02-A, 4-(3,5-Difluoropyridin-2-yl)-N-((1r,4r)-4-hydroxy-4-methylcyclohexyl)benzenesulfonamide] | 378 min | – | 43% | > 200 mg/kg | > 200 mg/kg | 4590 nM | – | 55 ng·h/mL | 231 µM | – | 3053 ng·min/mL
C[C@]1(O)CC[C@@H](NS(=O)(=O)c2ccc(-c3ncc(F)cc3F)cc2)CC1 [HMC-N-02-B, 4-(3,5-Difluoropyridin-2-yl)-N-((1s,4s)-4-hydroxy-4-methylcyclohexyl)benzenesulfonamide] | 360 min | 1931 ng·min/mL | 66% | – | – | 360 nM | – | 107 ng·h/mL | – | – | –
C[C@]1(O)CC[C@@H](NS(=O)(=O)c2ccc(-c3ncc(Cl)cc3Cl)cc2)CC1 [HMC-N-03-B, 4-(3,5-Dichloropyridin-2-yl)-N-((1s,4s)-4-hydroxy-4-methylcyclohexyl)benzenesulfonamide] | 444 min | – | 84% | – | – | 80 nM | – | 193 ng·h/mL | – | 1380* ng·min/mL | –
C[C@]1(O)CC[C@H](NS(=O)(=O)c2ccc(-c3ncc(Cl)cc3Cl)c(F)c2)CC1 [HMC-N-04-A, 4-(3,5-Dichloropyridin-2-yl)-3-fluoro-N-((1r,4r)-4-hydroxy-4-methylcyclohexyl)benzenesulfonamide] | 174 min | 1279 ng·min/mL | 66% | – | – | – | – | 70 ng·h/mL | > 30 µM | – | –
